The test system of the test is C57BL/6 mice. In words: Mouse test: muscle wet weight (body weight ratio) and gastrocnemius histology after 4-week oral administration. The format is in vivo. The following applies: once a day for 4 weeks, n=7/group. How it is done: C57BL/6 mice (Charles River, Japan: healthy mice) were used as test animals to evaluate the effect of 4-week continuous ingestion of Bifidobacterium breve FERM BP-11175 on muscle mass increase.
After receiving the test animals at 9 weeks old, F-2 feed (manufactured by Funabashi Pharm) and tap water were freely ingested. After one week of acclimatization, the test animals were divided into 3 groups (n=7/group): a control group (administered 10 mL/kg body weight of tap water); a Bifidobacterium administration group (administered 10 mL/kg body weight of culture supernatant of Bifidobacterium breve FERM BP-11175 prepared in (1) of test example 1); and a leucine administration group (administered 1.5 g/kg body weight of leucine), and oral administration was continued for each mouse using an oral probe once a day for 4 weeks. After the final administration, the test animals were fasted for 3 hours, followed by treatment under sevoflurane anesthesia, and plantaris and gastrocnemius was removed to measure the wet weight (body weight ratio) of each tissue. For gastrocnemius, the thin-sectioned tissue was stained with HE, and then the tissue was observed under a microscope.

For `CC(C)C[C@H](N)C(=O)O` [Leucine, leucine], the “Gastrocnemius tissue weight (body weight ratio) [Mean value ± SE]” value was 5.417 ± 0.125 mg/g body weight and the “Plantaris tissue weight (body weight ratio) [Mean value ± SE]” value was found to be 0.706 ± 0.027 mg/g body weight.

The values are drawn from patent publication US20200261516A1, “Composition for Increasing Muscle Mass” (MORINAGA MILK INDUSTRY CO., LTD., priority 2017, published 2020).
